What was measured:
Type in all cases: biochemical
MMP-1 = biological target: T1, MMP-1 (Homo sapiens, UniProt P03956); test: In Vitro Collagenase Assay (MMP-1); settings: human recombinant fibroblast collagenase
T1 construct: human recombinant fibroblast collagenase (truncated, mw=18,828)
T1 sequence (P03956 100-269 limits assumed): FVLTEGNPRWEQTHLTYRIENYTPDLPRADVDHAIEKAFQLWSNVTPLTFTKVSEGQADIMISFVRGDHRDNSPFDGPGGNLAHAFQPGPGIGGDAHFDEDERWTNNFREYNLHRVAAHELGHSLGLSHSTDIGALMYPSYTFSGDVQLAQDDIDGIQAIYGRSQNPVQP
Source text: In Vitro Collagenase Assay
This assay was based on the cleavage of a peptide substrate ((Dnp-Pro-Cha-Gly-Cys(Me)-His-Ala-Lys(NMa)-NH2), available from Peptide International, Inc.) by collagenase releasing the fluorescent NMa group which was quantitated on the fluorometer as disclosed in Bickett et al., "A High Throughput Fluorogenic Substrate for Interstitial Collagenase (MMP-1) and Gelatinase (MMP-9)", Anal. Biochem., 212:58-64, (1993). Dnp quenches the NMa fluorescence in the intact substrate.
The assay was run in HCBC assay buffer (50 mM HEPES, pH 7.0, 5 mM Ca^+2, 0.02% Brij, 0.5% Cysteine), with human recombinant fibroblast collagenase (truncated, mw=18,828. from Wyeth-Ayerst Research, Radnor, Pa.). The substrate was dissolved in methanol and stored frozen in 1 mM aliquots. Collagenase was stored frozen in buffer in 25 μM aliquots. In conducting the assay, the substrate was dissolved in HCBC buffer to a final concentration of 10 μM and collagenase to a final concentration of 5 nM. The compounds being examined were dissolved in methanol, DMSO, or HCBC. The methanol and DMSO were diluted in HCBC to <1.0%. The compounds were added to a 96 well plate containing enzyme and the reaction was started by the addition of substrate.
(§1) The reaction was read (excitation 340 nm, emission 444 nm) for 10 min. and the increase in fluorescence over time was plotted as a linear line. The slope of the line was calculated representing the reaction rate. The linearity of the reaction rate was confirmed (r^2 >0.85). The mean (x±sem) of the control rate was calculated and compared for statistical significance (p<0.05) with drug-treated rates using Dunnett's multiple comparison test.

MMP-9 = MMP-9 (Homo sapiens, UniProt P14780); test: In Vitro Gelatinase Assay (MMP-9); settings: human neutrophil gelatinase B
Chain of MMP-9 (P14780 94-707): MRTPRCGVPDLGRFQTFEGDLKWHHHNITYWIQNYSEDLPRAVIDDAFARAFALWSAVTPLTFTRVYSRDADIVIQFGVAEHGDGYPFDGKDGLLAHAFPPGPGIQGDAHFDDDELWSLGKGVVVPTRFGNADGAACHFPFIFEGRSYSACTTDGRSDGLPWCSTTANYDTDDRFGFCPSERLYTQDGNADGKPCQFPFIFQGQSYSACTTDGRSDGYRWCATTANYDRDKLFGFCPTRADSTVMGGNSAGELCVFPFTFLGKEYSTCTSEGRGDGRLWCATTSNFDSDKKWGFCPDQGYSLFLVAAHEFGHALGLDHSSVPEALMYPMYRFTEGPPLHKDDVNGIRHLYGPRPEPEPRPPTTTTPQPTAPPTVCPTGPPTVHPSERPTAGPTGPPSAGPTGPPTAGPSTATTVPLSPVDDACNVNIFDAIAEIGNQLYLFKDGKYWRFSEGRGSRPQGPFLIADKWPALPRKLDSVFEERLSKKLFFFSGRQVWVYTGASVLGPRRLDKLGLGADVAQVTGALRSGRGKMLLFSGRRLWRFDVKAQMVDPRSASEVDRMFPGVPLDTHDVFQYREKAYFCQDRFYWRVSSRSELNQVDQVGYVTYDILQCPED
Description: The enzyme activity is measured by the rate of the color increase. The thiopeptide substrate was made up fresh as a 20 mM stock in 100% DMSO and the DTNB was dissolved in 100% DMSO as a 100 mM stock and stored in the dark at room temperature. The substrate and the DTNB were diluted together to 1 mM with substrate buffer (50 mM HEPES, pH 7.5, 5 mM CaCl2) before use. […] The assay buffer, enzyme. […] The increase in OD405 was plotted and the slope of the line was calculated. The slope represents the reaction rate.

MMP-13 = MMP-13 (Homo sapiens, UniProt P45452); test: MMP-13 inhibition (Table 1); settings: read-out: IC50 (nM) MMP-13
TACE = biological target: T2, TACE (Homo sapiens, UniProt P78536); test: Procedure for Measuring TACE Inhibition
T2 construct: purchased Immunex
T2 sequence (P78536 215-824): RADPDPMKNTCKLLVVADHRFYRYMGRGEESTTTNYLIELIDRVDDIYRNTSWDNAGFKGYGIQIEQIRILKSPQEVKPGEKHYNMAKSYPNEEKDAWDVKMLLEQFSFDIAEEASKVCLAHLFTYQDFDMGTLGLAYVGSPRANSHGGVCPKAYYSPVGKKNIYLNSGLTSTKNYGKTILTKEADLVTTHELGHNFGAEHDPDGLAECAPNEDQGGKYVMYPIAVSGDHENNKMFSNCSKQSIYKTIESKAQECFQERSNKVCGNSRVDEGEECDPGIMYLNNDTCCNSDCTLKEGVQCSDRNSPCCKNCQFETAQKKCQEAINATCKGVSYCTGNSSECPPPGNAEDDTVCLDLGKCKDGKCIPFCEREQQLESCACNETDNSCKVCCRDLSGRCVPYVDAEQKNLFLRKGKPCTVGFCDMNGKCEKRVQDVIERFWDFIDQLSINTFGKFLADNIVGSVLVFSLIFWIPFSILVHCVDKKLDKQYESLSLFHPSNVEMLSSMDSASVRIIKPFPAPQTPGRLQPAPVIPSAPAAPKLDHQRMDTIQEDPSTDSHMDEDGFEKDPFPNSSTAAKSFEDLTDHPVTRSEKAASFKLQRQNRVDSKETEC
Description: Procedure for Measuring TACE Inhibition
The plates were incubated for 10 minutes at room temperature. The reaction was initiated by addition of a fluorescent peptidyl substrate (final concentration 100 μM) to each well with shaking on a shaker for 5 sec.
as §1, with “420” for “444”, “and this represents” for “representing”, “The linearity of the reaction rate was confirmed (r^2 >0.85).” left out

Structure (SMILES) | IC50 (MMP-1) | IC50 (MMP-9) | IC50 (MMP-13) | IC50 (TACE)
COc1ccc(S(=O)(=O)N2Cc3ccccc3N(C(=O)c3ccco3)CC2C(=O)NO)cc1 (stereo not drawn) [Example 40, 1-(2-Furanylcarbonyl)-4-(4-methoxybenzenesulfonyl)-2,3,4,5-tetrahydro-1H-[1,4]benzodiazepine-3-carboxylic acid, Hydroxyamide] | 16.6 nM | 1.4 nM | 1.2 nM | 28.5 nM
COc1ccc(S(=O)(=O)N2Cc3ccccc3N(C(=O)COc3ccccc3)CC2C(=O)NO)cc1 (stereo not drawn) [Example 58, 4-(4-Methoxybenzenesulfonyl)-1-(phenoxyacetyl)-2,3,4,5-tetrahydro-1H-[1,4]benzodiazepine-3-carboxylic acid, Hydroxamide] | 65.5 nM | 4.4 nM | 2.9 nM | 154 nM
COCC(=O)N1CC(C(=O)NO)N(S(=O)(=O)c2ccc(OC)cc2)Cc2cc(C)ccc21 (stereo not drawn) [Example 59, 1-Methoxyacetyl-4-(4-methoxybenzenesulfonyl)-7-methyl-2,3-4,5-tetrahydro-1H-[1,4]benzodiazepine-3-carboxylic acid, hydroxyamine] | 105 nM | 2.6 nM | 1.8 nM | 125 ± 6 nM
COc1ccc(S(=O)(=O)N2Cc3cc(C)ccc3N(C(=O)c3ccccc3)CC2C(=O)NO)cc1 (stereo not drawn) [Example 60, 1-Benzoyl-4-(4-methoxybenzenesulfonyl)-7-methyl-2,3,4,5-tetrahydro-1H[1,4]benzodianzepine-3-carboxylic acid, Hydroxyamide] | 22.7 nM | 1.4 nM | 1.3 nM | 143 nM
COc1ccc(S(=O)(=O)N2Cc3ccc(Cl)cc3N(C(=O)c3ccc(OC(F)(F)F)cc3)CC2C(=O)NO)cc1 (stereo not drawn) [Example 61, 4-(4-Methoxybenzenesulfonyl)-1-[4-(trifluoromethoxy)benzoyl]-8-chloro-2,3,4,5-tetrahydro-1H-[1,4]benzodiazepine-3-carboxylic acid, Hydroxyamide] | 239 nM | 1.3 nM | 0.4 nM | 1250 ± 69 nM
COc1ccc(S(=O)(=O)N2Cc3cc(C)ccc3N(C(=O)c3ccccc3-n3cccn3)CC2C(=O)NO)cc1 (stereo not drawn) [Example 63] | 130 nM | 5.6 nM | 3.1 nM | 446 ± 48 nM
COc1ccc(S(=O)(=O)N2Cc3ccc(Cl)cc3N(C(=O)c3ccccc3N3CCOCC3)CC2C(=O)NO)cc1 (stereo not drawn) [Example 64, 4-(4-Methoxybenzenesulfonyl)-1-[2-(4-morpholino)phenylcarbonyl}-8-chloro-2,3,4,5-tetrahydro-1H-[1,4]benzodiazepine-3-carboxylic acid, Hydroxyamide] | 157 nM | 6.1 nM | 3.4 nM | 384 nM
CCOc1ccc(C(=O)N2CC(C(=O)NO)N(S(=O)(=O)c3ccc(OC)cc3)Cc3ccccc32)cc1 (stereo not drawn) [Example 65, 1-(4-Ethoxybenzoyl)-4-(4-methoxybenzenesulfonyl)-2,3,4,5-tetrahydro-1H-[1,4]benzodiazepine-3-carboxylic acid, Hydroxyamide] | 23.5 nM | 1.5 nM | 1.5 nM | 157 nM
COc1ccc(S(=O)(=O)N2Cc3ccccc3N(C(=O)c3ccc(-n4ccc(C)n4)cc3Cl)CC2C(=O)NO)cc1 (stereo not drawn) [Example 66, 4-(4-Methoxybenzenesulfonyl)-1-[2-chloro-4-(3-methyl-1-pyrazolyl)phenylcarbonyl}-2,3,4,5-tetrahydro-1H-[1,4]benzodiazepine-3-carboxylic acid, Hydroxyamide] | 83.4 nM | 3.4 nM | 2.6 nM | 148 nM
COc1ccc(S(=O)(=O)N2Cc3ccccc3N(Cc3ccccc3)CC2C(=O)NO)cc1 (stereo not drawn) [Example 67, 1-Benzyl-4-(4-methoxybenzenesulfonyl)-2,3,4,5-tetrahydro-1H-[1,4]benzodiazepine-3-carboxylic acid, Hydroxylamide] | 1320 nM | 50.8 nM | 73.9 nM | 551 ± 29 nM
COc1ccc(S(=O)(=O)N2Cc3ccccc3N(C(=O)c3ccc(OC)cc3OC)CC2C(=O)NO)cc1 (stereo not drawn) [Example 71, 1-(2,4-Dimethoxybenzoyl)-4-(4-methoxybenzenesulfonyl)-2,3,4,5-tetrahydro-1H-[1,4]benzodiazepine-3-carboxylic acid, Hydroxyamide] | 41.3 nM | 2.4 nM | 1.3 nM | 136 nM
COc1ccc(S(=O)(=O)N2Cc3ccccc3N(C(=O)CN3CCN(C)CC3)CC2C(=O)NO)cc1 (stereo not drawn) [Example 72, 4-(4-Methoxybenzenesulfonyl)-1-[2-(4-methylpiperazin-1-yl)acetyl]-2,3,4,5-tetrahydro-1H-[1,4]benzodiazepine-3-carboxylic acid, Hydroxyamide] | 4980 nM | 187 nM | 317 nM | 808 nM
